From ChEMBL document CHEMBL1201862, “PubChem BioAssay data set” (2004) come the findings set out here.

Molecules are shown by their SMILES.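 Compound exposure: 48 hours, 5 concentrations, 96-well plates. Abbreviation: GI50, concentration required for 50% inhibition of growth.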 Calls of active or inactive are those of the source. Rule as the data show it: active = GI50 up to about 1.1 µM and inactive = higher.

Some test systems named below: 786-0; HCT-15; IGROV-1; OVCAR-8; SW-620; SN12C; HOP-62; HCC 2998; DLD-1; SF-539; M14; NCI-H226; CCRF-CEM; K562; A498; HL-60; SK-OV-3; LOX IMVI; RXF 393.
What all share (experiment): inhibition of tumour cell growth, NCI panel, 48 h

As for `Cc1cc(N(CCC#N)CCC#N)ccc1/C=C1\N=C(c2cc([N+](=O)[O-])ccc2Cl)N(c2cccc(Cl)c2)C1=O`, the GI50 was > 100 µM (inactive) with 786-0; more than 100 µM in the experiment with HCT-15; > 100 µM (inactive) in the experiment with IGROV-1; > 100 µM (inactive) in the experiment on OVCAR-8; < 0.01 µM (active) in the experiment with SW-620; > 100 µM (inactive) in the experiment with SN12C. The GI50 in the experiment with HOP-62, with HCC 2998, in the experiment with DLD-1, with SF-539, in the experiment with M14 and in the experiment with NCI-H226 was > 100 µM (inactive) throughout. The GI50 in the experiment with CCRF-CEM was 71.6 µM (inactive); in the experiment with K562 it was 96.6 µM (inactive); in the experiment with A498, > 100 µM (inactive); in the experiment on HL-60 it was > 100 µM (inactive); with SK-OV-3, > 100 µM (inactive).
For the compound `COC(=O)CSc1ccccc1`, the GI50 with 786-0 is 11.6 µM (inactive); with HCT-15, more than 100 µM; in the experiment with IGROV-1 it was > 100 µM (inactive); in the experiment with OVCAR-8 it was > 100 µM (inactive); with SW-620 it was > 100 µM (inactive); with SN12C, > 100 µM (inactive). The GI50 in the experiment on HOP-62, with HCC 2998, in the experiment with DLD-1, in the experiment on SF-539, with M14 and in the experiment with CCRF-CEM was > 100 µM (inactive) throughout. The GI50 in the experiment with K562, in the experiment with A498, in the experiment on HL-60, in the experiment on SK-OV-3, in the experiment with LOX IMVI and with RXF 393 was > 100 µM (inactive) throughout.
On to `O=C1[C@@H]2C(c3ccccc3F)=NO[C@@H]2C(=O)N1c1ccc(Cc2ccc(N3C(=O)[C@H]4C(c5ccccc5F)=NO[C@H]4C3=O)cc2)cc1`, for which the GI50 with 786-0 was > 100 µM (inactive); in the experiment on HCT-15 it was more than 100 µM; with IGROV-1, > 100 µM (inactive); with OVCAR-8, > 100 µM (inactive); in the experiment on SW-620, > 75.7 µM (inactive); with SN12C it was > 100 µM (inactive). The GI50 in the experiment with HOP-62, with HCC 2998, in the experiment with DLD-1, in the experiment with SF-539, with M14 and in the experiment with NCI-H226 was > 100 µM (inactive) in each case. The GI50 in the experiment on CCRF-CEM is 16 µM (inactive); in the experiment with K562, > 55.1 µM (inactive); in the experiment with A498, > 100 µM (inactive); in the experiment with HL-60, 14.4 µM (inactive); with SK-OV-3, > 100 µM (inactive); in the experiment with LOX IMVI, > 100 µM (inactive). In addition, in the experiment on RXF 393, the GI50 was > 43.7 µM (inactive).
On to `O=C(O)c1[nH]c(C(=O)O)c(CC(F)(F)C(F)(F)C(F)(F)F)c1CC(F)(F)C(F)(F)C(F)(F)F`, for which the GI50 is > 100 µM (inactive) in the experiment with 786-0; more than 100 µM in the experiment on HCT-15; > 100 µM (inactive) in the experiment with IGROV-1; > 100 µM (inactive) in the experiment on OVCAR-8; > 100 µM (inactive) with SW-620; > 100 µM (inactive) in the experiment on SN12C. In addition, the GI50 with HOP-62, with HCC 2998, in the experiment on DLD-1, in the experiment with SF-539, with M14 and with NCI-H226 was > 100 µM (inactive) each time. For the same compound, the GI50 with CCRF-CEM, with K562, with A498, with HL-60, in the experiment with SK-OV-3 and in the experiment with LOX IMVI was > 100 µM (inactive) throughout. In addition, the GI50 in the experiment on RXF 393 is > 100 µM (inactive).
In the case of `COC1/C(=C\C(=O)OC(C)(C)C)c2ccccc2N1C(C)=O` (stereo unspecified), the GI50 is > 100 µM (inactive) in the experiment with 786-0; more than 100 µM with HCT-15; > 100 µM (inactive) in the experiment with IGROV-1; > 100 µM (inactive) in the experiment with OVCAR-8; > 100 µM (inactive) in the experiment on SW-620; > 100 µM (inactive) in the experiment on SN12C. The GI50 in the experiment with HOP-62, in the experiment on HCC 2998, with DLD-1, with SF-539, with M14 and in the experiment on CCRF-CEM was > 100 µM (inactive) in each case. In addition, the GI50 in the experiment with K562 is > 100 µM (inactive); in the experiment on A498, > 100 µM (inactive); in the experiment on HL-60, 36.2 µM (inactive); with SK-OV-3, > 100 µM (inactive); in the experiment on RXF 393 it was 26.6 µM (inactive).
Turning to `CNC(=O)NCCCC(NC(C)=O)C(=O)NCc1ccccc1` (stereo unspecified), the GI50 in the experiment on 786-0 is > 100 µM (inactive); in the experiment on HCT-15 it was more than 100 µM; with IGROV-1 it was > 100 µM (inactive); in the experiment on OVCAR-8 it was > 100 µM (inactive); with SW-620, > 100 µM (inactive); in the experiment with SN12C it was > 100 µM (inactive). Also, the GI50 with HOP-62, in the experiment on HCC 2998, with DLD-1, in the experiment on SF-539, in the experiment on M14 and with NCI-H226 was > 100 µM (inactive) in each case. Moreover, the GI50 with CCRF-CEM, in the experiment on K562, with A498, in the experiment on SK-OV-3, in the experiment on LOX IMVI and in the experiment with RXF 393 was > 100 µM (inactive) each time.
Take `CCOC(=O)CCn1ncc(Cl)c(Cl)c1=O`: the GI50 was 14.3 µM (inactive) with 786-0; 2.15 µM in the experiment on HCT-15; 11.1 µM (inactive) in the experiment with IGROV-1; 5.98 µM (inactive) with OVCAR-8; 3.31 µM (inactive) in the experiment with SW-620; 13.7 µM (inactive) in the experiment with SN12C. For the same compound, the GI50 in the experiment with HOP-62 is 21.4 µM (inactive); with HCC 2998, 3.93 µM (inactive); with DLD-1, 5.5 µM (inactive); in the experiment on SF-539, 13.9 µM (inactive); in the experiment on M14 it was 4.21 µM (inactive); in the experiment on NCI-H226 it was 10.9 µM (inactive). In addition, the GI50 in the experiment on CCRF-CEM is 2.9 µM (inactive); in the experiment on K562 it was 2.79 µM (inactive); in the experiment with A498, 22.7 µM (inactive); in the experiment with HL-60, 2.67 µM (inactive); with SK-OV-3, 26.7 µM (inactive); in the experiment on LOX IMVI it was 8.53 µM (inactive). The GI50 with RXF 393 is 11.4 µM (inactive).
With `CSc1nnc2n1-c1ccccc1SCC2`, the GI50 in the experiment on 786-0 is > 100 µM (inactive); in the experiment on HCT-15, more than 100 µM; in the experiment on IGROV-1 it was > 100 µM (inactive); in the experiment on OVCAR-8, > 100 µM (inactive); in the experiment with SW-620, > 100 µM (inactive); with SN12C it was > 100 µM (inactive). Besides, the GI50 with HOP-62, in the experiment with HCC 2998, with DLD-1, with SF-539, with M14 and in the experiment with NCI-H226 was > 100 µM (inactive) in each case. The GI50 in the experiment with CCRF-CEM, in the experiment on K562, with A498, with HL-60, in the experiment with SK-OV-3 and in the experiment on LOX IMVI was > 100 µM (inactive) throughout. Further, the GI50 in the experiment on RXF 393 was > 100 µM (inactive).
On to `COc1nc(/C=N/NC(N)=S)nc(OC)n1`, for which the GI50 with 786-0 was 58.3 µM (inactive); in the experiment with IGROV-1, > 100 µM (inactive); with OVCAR-8, 56.9 µM (inactive); with SW-620, > 100 µM (inactive); with SN12C, 71.6 µM (inactive); with HCC 2998 it was 47.1 µM (inactive). Besides, the GI50 is > 100 µM (inactive) in the experiment with DLD-1; 32.4 µM (inactive) in the experiment on SF-539; 55.1 µM (inactive) in the experiment with M14; 69.7 µM (inactive) with NCI-H226; > 100 µM (inactive) in the experiment with K562; 33.7 µM (inactive) in the experiment with A498. The GI50 in the experiment on HL-60 is 45.8 µM (inactive); with SK-OV-3, > 100 µM (inactive); in the experiment with RXF 393, > 100 µM (inactive).
For the compound `CCCCCCCCCCCCCP(=O)(O)OCC`, the GI50 is > 100 µM (inactive) with 786-0; more than 100 µM in the experiment on HCT-15; > 100 µM (inactive) in the experiment with IGROV-1; > 100 µM (inactive) in the experiment with OVCAR-8; > 100 µM (inactive) in the experiment on SW-620; > 100 µM (inactive) in the experiment with SN12C. The GI50 with HOP-62, in the experiment on HCC 2998, in the experiment on DLD-1, in the experiment on SF-539, with M14 and in the experiment on NCI-H226 was > 100 µM (inactive) throughout. The GI50 in the experiment on CCRF-CEM, with A498, in the experiment with HL-60, in the experiment with LOX IMVI and with RXF 393 was > 100 µM (inactive) in each case.
In the case of `NCCCC1NC(=O)/C(=C(O)/C=C/C2CCC[C@@H]2CC2SCCS2)C1=O` (stereo partly specified), the GI50 is > 100 µM (inactive) with 786-0; > 100 µM (inactive) in the experiment on IGROV-1; > 100 µM (inactive) with OVCAR-8; 57 µM (inactive) in the experiment on SW-620; > 100 µM (inactive) with SN12C; > 100 µM (inactive) in the experiment with HOP-62. Moreover, the GI50 in the experiment on HCC 2998 is > 100 µM (inactive); in the experiment with DLD-1, > 100 µM (inactive); with SF-539 it was > 100 µM (inactive); with M14, > 100 µM (inactive); with NCI-H226, 71.8 µM (inactive); in the experiment on CCRF-CEM, 54.1 µM (inactive). Also, the GI50 is 31.2 µM (inactive) in the experiment on K562; > 100 µM (inactive) in the experiment on A498; 23.3 µM (inactive) with HL-60; > 100 µM (inactive) in the experiment with SK-OV-3; > 100 µM (inactive) in the experiment on LOX IMVI; > 100 µM (inactive) with RXF 393.
